In the supplement of paper PMC10307832:

Experiments:
Test in all cases: relative viability (nuclei count vs DMSO), 5 days (fraction); higher = more cells survive
Ponatinib + Crizotinib = compound: Cc1ccc(C(=O)Nc2ccc(CN3CCN(C)CC3)c(C(F)(F)F)c2)cc1C#Cc1cnc2cccnn12 [Ponatinib] + C[C@@H](Oc1cc(-c2cnn(C3CCNCC3)c2)cnc1N)c1c(Cl)ccc(F)c1Cl [Crizotinib] (partner 1 µM)
In short: (§1)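 Lung cancer cell lines were seeded in 1536-well plates and dosed by pin tool the next day, with either a single drug or a fixed anchor-drug dose combined with five library-drug doses (not always all listed) spaced in √10 steps. Five days later, one step fixed the cells and stained their nuclei (final 0.05% Triton X-100, 1% formaldehyde, 1 ug/ml Hoechst), and nuclei were counted on 4× images. Relative viability is the nuclei count in treated wells divided by the count in vehicle wells, and each value is the median of duplicate plates.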

Ponatinib + Linsitinib = compound: Cc1ccc(C(=O)Nc2ccc(CN3CCN(C)CC3)c(C(F)(F)F)c2)cc1C#Cc1cnc2cccnn12 [Ponatinib] + C[C@]1(O)C[C@@H](c2nc(-c3ccc4ccc(-c5ccccc5)nc4c3)c3c(N)nccn32)C1 [Linsitinib] (partner 1 µM)
In short: as §1

Ponatinib + Pictilisib = compound: Cc1ccc(C(=O)Nc2ccc(CN3CCN(C)CC3)c(C(F)(F)F)c2)cc1C#Cc1cnc2cccnn12 [Ponatinib] + CS(=O)(=O)N1CCN(Cc2cc3nc(-c4cccc5[nH]ncc45)nc(N4CCOCC4)c3s2)CC1 [Pictilisib] (partner 1 µM)
In short: as §1

Ponatinib + Tozasertib = compound: Cc1ccc(C(=O)Nc2ccc(CN3CCN(C)CC3)c(C(F)(F)F)c2)cc1C#Cc1cnc2cccnn12 [Ponatinib] + Cc1cc(Nc2cc(N3CCN(C)CC3)nc(Sc3ccc(NC(=O)C4CC4)cc3)n2)n[nH]1 [Tozasertib] (partner 0.1 µM)
In short: as §1

Ponatinib + OSI-027 = compound: Cc1ccc(C(=O)Nc2ccc(CN3CCN(C)CC3)c(C(F)(F)F)c2)cc1C#Cc1cnc2cccnn12 [Ponatinib] + COc1cccc2cc(-c3nc([C@H]4CC[C@H](C(=O)O)CC4)n4ncnc(N)c34)[nH]c12 [OSI-027] (partner 0.5 µM)
In short: as §1

Cell Line | relative viability (Ponatinib + Crizotinib; first compound 0.002 µM) | relative viability (Ponatinib + Crizotinib; first compound 0.006325 µM) | relative viability (Ponatinib + Crizotinib; first compound 0.06325 µM) | relative viability (Ponatinib + Crizotinib; first compound 0.2 µM) | relative viability (Ponatinib + Linsitinib; first compound 0.002 µM) | relative viability (Ponatinib + Linsitinib; first compound 0.006325 µM) | relative viability (Ponatinib + Linsitinib; first compound 0.06325 µM) | relative viability (Ponatinib + Linsitinib; first compound 0.2 µM) | relative viability (Ponatinib + Pictilisib; first compound 0.002 µM) | relative viability (Ponatinib + Pictilisib; first compound 0.006325 µM) | relative viability (Ponatinib + Pictilisib; first compound 0.06325 µM) | relative viability (Ponatinib + Pictilisib; first compound 0.2 µM) | relative viability (Ponatinib + Tozasertib; first compound 0.002 µM) | relative viability (Ponatinib + Tozasertib; first compound 0.006325 µM) | relative viability (Ponatinib + Tozasertib; first compound 0.06325 µM) | relative viability (Ponatinib + Tozasertib; first compound 0.2 µM) | relative viability (Ponatinib + OSI-027; first compound 0.002 µM) | relative viability (Ponatinib + OSI-027; first compound 0.006325 µM) | relative viability (Ponatinib + OSI-027; first compound 0.06325 µM) | relative viability (Ponatinib + OSI-027; first compound 0.2 µM)
LCLC-103H | 1.03 | 1.13 | 1.17 | 1.03 | 0.952 | 1.15 | 1.15 | 0.889 | 0.543 | 0.592 | 0.636 | 0.572 | 0.527 | 0.534 | 0.522 | 0.404 | 0.43 | 0.382 | 0.453 | 0.419
LK-2 | 0.26 | 0.217 | 0.234 | 0.269 | 0.599 | 0.623 | 0.592 | 0.351 | 0.589 | 0.555 | 0.411 | 0.446 | – | 0.174 | 0.188 | 0.209 | 0.151 | 0.217 | 0.162 | 0.147
LOU-NH91 | 0.709 | 0.777 | 0.758 | 0.731 | 0.995 | 0.966 | 0.977 | 0.942 | 0.554 | 0.567 | 0.512 | 0.521 | 0.65 | 0.668 | 0.71 | 0.595 | 0.675 | 0.762 | 0.746 | 0.741
LU99A | 0.512 | 0.53 | 0.564 | 0.59 | 0.5 | 0.501 | 0.611 | 0.527 | 0.303 | 0.335 | 0.369 | 0.329 | 0.227 | 0.293 | 0.251 | 0.263 | 0.299 | 0.319 | 0.32 | 0.278
LXF-289 | 0.769 | 0.825 | 0.821 | 0.792 | 0.936 | 0.959 | 0.992 | 0.933 | 0.737 | 0.795 | 0.883 | 0.777 | 0.205 | 0.262 | 0.21 | 0.148 | 0.735 | 0.808 | 0.916 | 0.714
NCI-H23 | 0.471 | 0.488 | 0.504 | 0.558 | 0.501 | 0.602 | 0.705 | 0.608 | 0.588 | 0.592 | 0.571 | 0.44 | 0.351 | 0.419 | 0.25 | 0.197 | 0.621 | 0.645 | 0.53 | 0.456
NCI-H322M | 0.913 | 0.961 | 0.816 | 0.66 | 0.854 | 0.897 | 1.03 | 0.819 | 0.523 | 0.522 | 0.53 | 0.536 | 0.429 | 0.412 | 0.41 | 0.423 | 0.595 | 0.425 | 0.508 | 0.425
NCI-H358 | 0.536 | 0.512 | 0.517 | 0.502 | 0.847 | 0.771 | 0.758 | 0.522 | 0.318 | 0.429 | 0.369 | 0.331 | 0.0953 | 0.101 | 0.0969 | 0.165 | 0.813 | 0.816 | 0.998 | 0.672
NCI-H441 | 0.576 | 0.632 | 0.835 | 0.607 | 0.48 | 0.576 | 0.478 | 0.5 | 0.608 | 0.48 | 0.49 | 0.313 | 0.602 | 0.529 | 0.588 | 0.488 | 0.47 | 0.606 | 0.482 | 0.388
NCI-H460 | 0.764 | 0.863 | 1.02 | 0.908 | 0.74 | 0.795 | 1.1 | 0.744 | 0.383 | 0.441 | 0.469 | 0.452 | 0.407 | 0.526 | 0.19 | 0.0908 | 0.605 | 0.56 | 0.637 | 0.49
NCI-H520 | 0.682 | 0.843 | 0.841 | 0.581 | 0.773 | 1 | 0.867 | 0.628 | 0.253 | 0.248 | 0.259 | 0.249 | 0.45 | 0.419 | 0.397 | 0.372 | 0.273 | 0.244 | 0.203 | 0.2
NCI-H596 | 0.905 | 0.891 | 0.917 | 0.843 | 1.03 | 1.01 | 1.08 | 0.792 | 0.354 | 0.401 | 0.36 | 0.374 | 0.914 | 0.911 | 0.734 | 0.743 | 0.653 | 0.619 | 0.516 | 0.392
NCI-H647 | 0.851 | 1.07 | 1.12 | 0.989 | 1.22 | 1.01 | 1.05 | 1.1 | 0.381 | 0.449 | 0.434 | 0.376 | 0.318 | 0.224 | 0.288 | 0.259 | 0.565 | 0.716 | 0.69 | 0.502
NCI-H650 | 0.598 | 0.663 | 0.695 | 0.605 | 0.641 | 0.83 | 0.809 | 0.743 | 0.843 | 0.739 | 0.758 | 0.88 | 0.685 | 0.707 | 0.712 | 0.618 | 0.378 | 0.49 | 0.456 | 0.466
NCI-H661 | 1.02 | 1.04 | 0.99 | 1.13 | 0.54 | 0.598 | 0.692 | 0.565 | 0.404 | 0.406 | 0.389 | 0.482 | 0.36 | 0.345 | 0.351 | 0.368 | 0.669 | 0.707 | 0.763 | 0.666
NCI-H727 | 0.853 | 0.686 | 0.893 | 0.765 | 0.268 | 0.328 | 0.378 | 0.173 | 0.367 | 0.514 | 0.356 | 0.333 | 0.607 | 0.593 | 0.531 | 0.669 | 0.567 | 0.558 | 0.617 | 0.508
